Measured values: ChEMBL document CHEMBL5291721, “A preclinical secondary pharmacology resource illuminates target-adverse drug reaction associations of marketed drugs” (Nat Commun, 2023)

Tests used:
[1] = molecular target: Sodium-dependent noradrenaline transporter (Homo sapiens, UniProt P23975)
[2] = molecular target: T1, Muscarinic acetylcholine receptor M2 (Homo sapiens, UniProt P08172)
T1 sequence (P08172 whole entry): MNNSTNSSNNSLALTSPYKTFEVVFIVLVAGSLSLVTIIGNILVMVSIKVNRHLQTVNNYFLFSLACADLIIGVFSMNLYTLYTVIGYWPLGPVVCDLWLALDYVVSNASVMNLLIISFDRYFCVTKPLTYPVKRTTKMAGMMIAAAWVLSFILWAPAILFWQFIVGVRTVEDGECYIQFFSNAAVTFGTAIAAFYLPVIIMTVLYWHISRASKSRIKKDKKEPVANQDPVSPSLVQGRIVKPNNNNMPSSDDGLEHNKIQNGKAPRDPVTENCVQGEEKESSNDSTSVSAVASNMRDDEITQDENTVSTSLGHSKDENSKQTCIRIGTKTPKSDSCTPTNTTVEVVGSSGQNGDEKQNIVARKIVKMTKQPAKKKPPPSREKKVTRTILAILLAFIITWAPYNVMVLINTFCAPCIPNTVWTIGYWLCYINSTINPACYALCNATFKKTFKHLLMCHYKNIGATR

Thromboxane A2 receptor = molecular target: T2, Thromboxane A2 receptor (Homo sapiens, UniProt P21731); assay type: functional, cell-based
T2 sequence (P21731 whole entry): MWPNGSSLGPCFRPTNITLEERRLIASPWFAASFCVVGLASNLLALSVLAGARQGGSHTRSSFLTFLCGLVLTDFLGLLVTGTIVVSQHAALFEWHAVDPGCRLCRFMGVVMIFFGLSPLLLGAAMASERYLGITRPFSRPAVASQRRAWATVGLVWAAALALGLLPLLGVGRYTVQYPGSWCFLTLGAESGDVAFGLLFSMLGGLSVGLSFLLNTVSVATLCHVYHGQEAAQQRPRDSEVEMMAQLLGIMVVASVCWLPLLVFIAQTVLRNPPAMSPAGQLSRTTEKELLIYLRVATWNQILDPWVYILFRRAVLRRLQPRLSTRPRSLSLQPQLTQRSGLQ

[3] = molecular target: T3, Muscarinic acetylcholine receptor M1 (Homo sapiens, UniProt P11229); assay type: functional, cell-based
T3 sequence (P11229 whole entry): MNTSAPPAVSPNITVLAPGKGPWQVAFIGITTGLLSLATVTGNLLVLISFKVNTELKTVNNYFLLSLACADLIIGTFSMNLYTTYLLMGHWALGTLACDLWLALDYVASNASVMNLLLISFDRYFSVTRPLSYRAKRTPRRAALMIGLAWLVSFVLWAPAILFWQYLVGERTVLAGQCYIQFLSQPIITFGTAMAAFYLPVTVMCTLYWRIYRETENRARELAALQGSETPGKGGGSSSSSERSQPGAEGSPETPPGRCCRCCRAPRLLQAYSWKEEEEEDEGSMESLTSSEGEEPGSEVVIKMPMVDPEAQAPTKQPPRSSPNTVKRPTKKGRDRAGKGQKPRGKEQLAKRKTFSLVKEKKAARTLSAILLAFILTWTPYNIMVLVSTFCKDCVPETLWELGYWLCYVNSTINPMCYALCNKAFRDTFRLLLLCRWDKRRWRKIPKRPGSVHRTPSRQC

Estrogen receptor = molecular target: T4, Estrogen receptor (Homo sapiens, UniProt P03372)
T4 sequence (P03372 whole entry): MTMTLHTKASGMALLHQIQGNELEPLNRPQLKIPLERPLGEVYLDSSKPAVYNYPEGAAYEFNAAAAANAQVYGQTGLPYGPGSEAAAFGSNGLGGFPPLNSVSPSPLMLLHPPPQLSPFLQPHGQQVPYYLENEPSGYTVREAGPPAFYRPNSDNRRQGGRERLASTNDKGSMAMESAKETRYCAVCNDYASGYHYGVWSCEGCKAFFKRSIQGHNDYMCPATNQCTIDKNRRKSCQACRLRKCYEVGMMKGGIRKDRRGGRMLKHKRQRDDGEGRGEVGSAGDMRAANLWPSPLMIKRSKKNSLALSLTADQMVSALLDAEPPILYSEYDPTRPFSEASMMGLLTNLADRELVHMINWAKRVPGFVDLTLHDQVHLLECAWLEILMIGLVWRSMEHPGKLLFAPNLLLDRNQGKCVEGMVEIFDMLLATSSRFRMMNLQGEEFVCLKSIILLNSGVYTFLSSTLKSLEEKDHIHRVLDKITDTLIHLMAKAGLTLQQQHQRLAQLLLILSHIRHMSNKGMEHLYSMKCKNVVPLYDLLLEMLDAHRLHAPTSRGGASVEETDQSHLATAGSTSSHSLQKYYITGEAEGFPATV

[4] = molecular target: Sodium-dependent dopamine transporter (Homo sapiens, UniProt Q01959)
[5] = molecular target: T5, Alpha-1A adrenergic receptor (Homo sapiens, UniProt P35348); assay type: functional, cell-based
T5 sequence (P35348 whole entry): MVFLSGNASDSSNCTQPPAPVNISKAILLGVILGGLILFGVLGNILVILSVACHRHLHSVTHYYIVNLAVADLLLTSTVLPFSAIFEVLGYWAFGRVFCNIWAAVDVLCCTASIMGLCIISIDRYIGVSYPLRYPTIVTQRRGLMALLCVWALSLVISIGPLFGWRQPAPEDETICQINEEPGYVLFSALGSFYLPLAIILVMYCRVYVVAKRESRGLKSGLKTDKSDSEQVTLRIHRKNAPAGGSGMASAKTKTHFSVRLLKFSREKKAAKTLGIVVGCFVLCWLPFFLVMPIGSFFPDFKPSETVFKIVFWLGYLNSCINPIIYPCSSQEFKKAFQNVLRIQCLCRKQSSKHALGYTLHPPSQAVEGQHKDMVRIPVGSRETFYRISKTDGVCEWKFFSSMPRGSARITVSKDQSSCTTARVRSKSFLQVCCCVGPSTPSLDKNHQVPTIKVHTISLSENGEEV

[6] = molecular target: 3',5'-cyclic-AMP phosphodiesterase 4A (Homo sapiens, UniProt P27815); assay type: functional
Adenosine receptor A3 = molecular target: T6, Adenosine receptor A3 (Homo sapiens, UniProt P0DMS8)
T6 sequence (P0DMS8 whole entry): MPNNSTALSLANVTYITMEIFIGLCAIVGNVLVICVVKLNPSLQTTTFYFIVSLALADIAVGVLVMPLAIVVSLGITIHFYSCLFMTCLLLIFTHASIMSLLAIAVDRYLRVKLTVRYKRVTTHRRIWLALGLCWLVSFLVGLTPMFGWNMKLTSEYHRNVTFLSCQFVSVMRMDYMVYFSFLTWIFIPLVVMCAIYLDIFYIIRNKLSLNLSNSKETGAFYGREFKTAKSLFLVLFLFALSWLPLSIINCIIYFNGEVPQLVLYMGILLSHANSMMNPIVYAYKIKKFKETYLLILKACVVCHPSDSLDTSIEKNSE

Mu-type opioid receptor = Mu-type opioid receptor (Homo sapiens, UniProt P35372)
Further: assay procedure not described here.

Mu-type opioid receptor, sequence (P35372 whole entry): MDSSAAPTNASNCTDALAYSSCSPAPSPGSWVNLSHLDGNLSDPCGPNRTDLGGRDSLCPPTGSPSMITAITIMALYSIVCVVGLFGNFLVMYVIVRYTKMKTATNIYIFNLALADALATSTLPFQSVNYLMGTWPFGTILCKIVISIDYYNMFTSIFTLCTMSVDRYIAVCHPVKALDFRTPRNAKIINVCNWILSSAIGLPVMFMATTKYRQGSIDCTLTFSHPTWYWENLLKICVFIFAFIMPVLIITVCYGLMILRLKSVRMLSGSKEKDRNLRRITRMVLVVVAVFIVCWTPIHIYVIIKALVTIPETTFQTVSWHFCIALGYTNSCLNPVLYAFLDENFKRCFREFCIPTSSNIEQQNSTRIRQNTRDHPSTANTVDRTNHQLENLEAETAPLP
Sodium-dependent noradrenaline transporter, sequence (P23975 whole entry): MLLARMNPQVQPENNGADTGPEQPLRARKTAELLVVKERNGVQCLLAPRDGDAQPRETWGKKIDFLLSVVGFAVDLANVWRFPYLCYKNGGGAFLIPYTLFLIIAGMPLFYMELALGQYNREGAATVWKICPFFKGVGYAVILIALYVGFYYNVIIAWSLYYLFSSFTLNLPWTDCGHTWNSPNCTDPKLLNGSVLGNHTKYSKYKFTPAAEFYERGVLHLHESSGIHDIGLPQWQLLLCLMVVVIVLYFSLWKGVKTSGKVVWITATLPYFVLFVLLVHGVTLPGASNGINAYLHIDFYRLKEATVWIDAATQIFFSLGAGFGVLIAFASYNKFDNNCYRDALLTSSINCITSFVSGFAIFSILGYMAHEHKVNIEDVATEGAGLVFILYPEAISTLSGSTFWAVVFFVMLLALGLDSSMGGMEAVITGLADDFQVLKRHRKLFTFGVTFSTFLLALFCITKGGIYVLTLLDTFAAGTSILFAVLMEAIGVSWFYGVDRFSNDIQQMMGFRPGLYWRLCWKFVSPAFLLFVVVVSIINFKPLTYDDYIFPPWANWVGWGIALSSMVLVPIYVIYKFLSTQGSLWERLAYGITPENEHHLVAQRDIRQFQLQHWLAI
3',5'-cyclic-AMP phosphodiesterase 4A, sequence (P27815 whole entry): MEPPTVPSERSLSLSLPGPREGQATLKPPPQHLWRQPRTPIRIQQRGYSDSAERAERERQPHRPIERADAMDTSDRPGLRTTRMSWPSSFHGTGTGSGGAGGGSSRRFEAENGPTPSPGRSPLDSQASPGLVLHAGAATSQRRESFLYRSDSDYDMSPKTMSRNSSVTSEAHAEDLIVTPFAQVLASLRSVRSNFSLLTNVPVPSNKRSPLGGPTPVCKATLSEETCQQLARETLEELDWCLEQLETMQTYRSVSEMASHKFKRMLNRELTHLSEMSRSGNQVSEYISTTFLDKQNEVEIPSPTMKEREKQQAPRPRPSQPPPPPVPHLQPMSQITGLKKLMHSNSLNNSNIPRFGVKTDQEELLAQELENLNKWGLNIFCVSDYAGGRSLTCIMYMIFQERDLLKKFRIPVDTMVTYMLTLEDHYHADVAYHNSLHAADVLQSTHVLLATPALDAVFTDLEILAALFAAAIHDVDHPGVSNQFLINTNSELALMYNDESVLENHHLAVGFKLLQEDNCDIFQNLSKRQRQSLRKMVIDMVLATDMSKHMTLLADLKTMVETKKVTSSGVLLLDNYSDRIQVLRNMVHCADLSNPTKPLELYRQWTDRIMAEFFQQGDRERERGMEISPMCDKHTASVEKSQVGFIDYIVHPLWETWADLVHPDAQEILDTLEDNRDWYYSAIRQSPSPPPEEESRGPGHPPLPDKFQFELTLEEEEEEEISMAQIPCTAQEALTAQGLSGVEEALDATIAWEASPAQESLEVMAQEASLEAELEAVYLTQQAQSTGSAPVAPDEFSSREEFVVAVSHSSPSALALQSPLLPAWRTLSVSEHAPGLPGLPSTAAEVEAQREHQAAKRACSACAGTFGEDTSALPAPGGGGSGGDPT
Sodium-dependent dopamine transporter, sequence (Q01959 whole entry): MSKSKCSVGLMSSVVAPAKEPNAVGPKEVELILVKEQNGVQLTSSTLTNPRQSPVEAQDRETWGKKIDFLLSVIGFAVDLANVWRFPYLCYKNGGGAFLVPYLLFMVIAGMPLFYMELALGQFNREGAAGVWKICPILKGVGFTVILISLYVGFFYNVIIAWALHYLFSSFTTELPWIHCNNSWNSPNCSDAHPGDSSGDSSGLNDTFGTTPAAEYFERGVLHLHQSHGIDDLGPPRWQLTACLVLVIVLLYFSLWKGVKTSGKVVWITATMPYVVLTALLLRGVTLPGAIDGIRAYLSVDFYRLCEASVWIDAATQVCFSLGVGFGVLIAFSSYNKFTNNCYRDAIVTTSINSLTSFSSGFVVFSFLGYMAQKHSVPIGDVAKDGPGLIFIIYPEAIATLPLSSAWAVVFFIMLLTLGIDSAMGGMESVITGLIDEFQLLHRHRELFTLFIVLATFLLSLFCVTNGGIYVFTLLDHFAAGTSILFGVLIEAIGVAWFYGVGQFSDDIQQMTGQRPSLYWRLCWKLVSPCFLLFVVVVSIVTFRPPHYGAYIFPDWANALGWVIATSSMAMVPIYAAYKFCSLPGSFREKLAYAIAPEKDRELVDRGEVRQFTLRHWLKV

SMILES | AC50 [1] | AC50 [2] | AC50 (Thromboxane A2 receptor) | AC50 [3] | AC50 (Estrogen receptor) | AC50 [4] | AC50 [5] | AC50 [6] | AC50 (Adenosine receptor A3) | AC50 (Mu-type opioid receptor)
CC(C)(C)NCC(O)COc1cccc2c1SCCC2 (stereo not given) [TERTATOLOL] | 29.6 µM | > 30 µM | > 30 µM | > 30 µM | > 30 µM | > 30 µM | > 30 µM | > 30 µM | > 30 µM | > 30 µM
Nc1ccc(S(=O)(=O)c2cnc(N)s2)cc1 [THIAZOLSULFONE] | > 30 µM | > 30 µM | > 30 µM | > 30 µM | > 30 µM | 24.3 µM | > 30 µM | > 30 µM | 13.8 µM | > 30 µM
CC(CNC(=O)c1ccccc1)C(=O)OCC(=O)[C@@]12OC(C)(C)O[C@@H]1C[C@H]1[C@@H]3CCC4=CC(=O)C=C[C@]4(C)[C@@]3(F)[C@@H](O)C[C@@]12C (stereo not given in full) [TRIAMCINOLONE BENETONIDE] | > 30 µM | > 30 µM | > 30 µM | > 30 µM | > 30 µM | > 30 µM | > 30 µM | > 30 µM | > 30 µM | > 30 µM
O=C(Nc1ccc(Cl)cc1)Nc1ccc(Cl)c(Cl)c1 [TRICLOCARBAN] | 0.863 µM | > 30 µM | > 30 µM | > 30 µM | > 30 µM | > 10 µM | 2.44 µM | 25.4 µM | 2.08 µM | 4.85 µM
CCOc1ccccc1OCC1CNCCO1 (stereo not given) [VILOXAZINE] | 0.362 µM | > 30 µM | > 30 µM | > 30 µM | > 30 µM | > 30 µM | > 30 µM | > 30 µM | > 30 µM | > 30 µM
